Experimental data published in patent US20240124424A1, “SOLID FORMS OF (5S)-CYCLOPROPYL-5-[3-[(3S)-4-(3,5-DIFLUOROPHENYL)-3-METHYL-PIPERAZIN-1-YL]-3-OXO-PROPYL]IMIDAZOLIDINE-2,4-DIONE” (Galapagos NV, priority 2020, published 2024).
Where “and” joins values, the source holds several entries; their conditions need not be identical. Equal entries are not always repeated.

Assays:
[1] = system: mdx mice; experiment: Duchenne muscular dystrophy mdx model; type: in vivo; parameters: Average force output (grip strength) / Tissue volume / Bone volume: unit not given here; conditions: mean, Cpd 1 120 mg/kg p.o. b.i.d., prednisolone 5 mg/kg p.o. qd; for Av. g/g BW (average force output/g of body weight) / Average force output (grip strength): n = 15
Excerpt: The male mdx mice is the most used animal model for pre-clinical Duchenne muscular dystrophy (DMD) research.
Five-week-old mdx mice (Animal Resource Centre; Perth, WA, Australia) were allowed to acclimatise for 1 week to their surroundings, before being randomly allocated to one of four treatment groups or an untreated control group (15 animals per group) as described in the table below. At the start of the study, these groups were matched for mouse body weight.
The untreated control mdx mice were restrained throughout the study. Following 1-week acclimatisation, this group of mice also have baseline measurements of grip strength and body composition taken, which were repeated at ˜10 weeks and ˜15 weeks of age. Furthermore, these mice were weighed on a regular basis and their urine was collected at ˜6, ˜10 and ˜15 weeks of age. […]
Bone structure was evaluated via μCT analysis of cortical and trabecular bone on the femur.

[2] = Stability study of the solid forms; type: physicochemical; conditions: for Stability of solid forms under different conditions: result in words
[3] = system: Balb/c mice; experiment: Protein overload nephrectomy model; type: in vivo; conditions: day 14, individual mice, Cpd 1 240 mg/kg/day b.i.d. or lisinopril 10 mg/kg/day, oral gavage; for proteinuria / urine creatinine: 24 h urine; for Protein/creatinine: urine ratio
Procedure: This animal model allows to assess the efficacy of the compound of the invention in renal disease, including renal fibrosis.
This study was undertaken in Balb/c mice (Charles River).
Mice underwent a left unilateral nephrectomy via a short flank incision under anaesthesia.
Sham control mice received an incision only . The mice were allowed to recover from surgery for 7 days.
Drug treatment commenced one day prior to initiation of protein overload.
Each mouse received either Cpd 1 240 mg/kg/day b.i.d. (dosed daily at 8h00 and 15h30), or 10 mg/kg/day Lisinopril (one dose Lisinopril plus one dose of vehicle), or vehicle alone (0.5% methyl cellulose containing 2% Tween 80—two doses) by oral gavage.
Sham mice received vehicle alone. Protein overload was initiated by daily intraperitoneal injections of sterile filtered 450 mg/ml BSA solution in saline (Sigma cat A4919: low endotoxin) starting from 2 mg/g body weight on day one and increasing to 15 mg/g on day 7 until day 14 according to schedule below:
Sham mice received equivalent volumes of saline. After the last injection, mice were housed in metabolic cages for 24 h urine collection.
The mice were then anaesthetized before sacrifice. Blood sample was collected. The remaining right kidneys were perfused with PBS (Sigma 806552)+10 mM EDTA (Invitrogen 15575-02—stock 0.5M) after which they were excised and transverse dissected.
All data were expressed as means±SEM. Results were analysed using GraphPad Prism 8. D'Agostino-Pearson omnibus normality tests were performed to assess normality for data sets >8, while a Shapiro-Wilk test was applied to data sets <8. For multiple comparisons, a one-way ANOVA with Tukey's post hoc correction (parametric) or a Kruskal-Wallis test with Dunn's post hoc test (non-parametric data) were used. ELISA standard curves were plotted using a Sigmoidal4PL fit where x was the log of the standard concentration. Relative mRNA expression levels were calculated according to the Livak equation as 2-ΔCt. A confidence interval of 0.95, p≤0.05, was applied for all statistical tests.
The following endpoints were measured: • Urine Protein concentration mg/mL, • Urine protein/mg creatinine (mg/mg) • serum protein concentration (mg/mL), • urine creatinine concentration (mg/dL)(mg/mL) • Serum creatinine concentration (mg/dL) • Serum urea concentration (mg/dL) • Versikine, NITEGE, ARGS dot blots • Immunohistochemistry: ADAMTS5, Collagen I, Collagen IV, fibronectin, CD45, complement C3, F4/80

[4] = PK study in human, tablets of Form I and Form II; type: in vivo; conditions: fasted, 300 mg oral
Procedure: Following a single 300 mg oral administration of Cpd 1 under fasted and/or fed conditions to healthy male subjects (18 subjects per group) as 30% or 50% drug load tablets of crystalline form I and crystalline form II, concentrations of Cpd 1 human plasma concentrations were determined using protein precipitation extraction with liquid chromatography with tandem mass spectrometry (LC-MS/MS) detection.
The lower limit of quantification was 1 ng/mL. In each analytical run, duplicate QC samples were analyzed along with the study samples.
Blood samples (2 mL) for determination of Cpd 1 in plasma were collected at various time points into tubes containing lithium heparin and were immediately chilled (ice bath). Within 30 min after blood collection, the plasma was separated in a refrigerated centrifuge at 4° C. for 10 min at circa 1,500 g.
Predose PK samples were collected within 15 min predose then at the following time points: 0.5 h, 1 h, 1.5 h, 2 h, 2.5 h, 3 h, 4 h, 5 h, 6 h, 8 h, 12 h, 16 h, 24 h, 48 h, 72 h. For all PK samples between 0.5 and 16 h, a window of ±5 min was allowed; for 24- to 72-h samples, a window of ±30 min was allowed.
All statistical analyses were performed using SAS® version 9.4 (or higher) (SAS Institute, Cary, NC, USA) and/or Phoenix WinNonLin (version 8 or higher) software.
All relevant data were documented using summary tables, figures, and subject data listings. […]

[5] = system: BALB/c (H2^d) mice; experiment: Graft versus host (cGvHD) lung model; type: in vivo; conditions: 120 mg/kg p.o. b.i.d., statistically significant
Excerpt: In this cGvHD model, fibrosis was induced in BALB/c (H2^d) mice by allogeneic transplantation of bone marrow cells and splenocytes from B10.D2 (H2^d) donor mice (minor HLA mismatch). The recipient mice develop inflammation-driven dermal and pulmonary fibrosis resembling patients with rapidly progressive diffuse cutaneous systemic sclerosis (Zen et al., 2012).
The treatment was provided only after the onset of first clinical symptoms of sclerodermatous cGvHD.
The following groups with each eight mice were used in this study • Syngeneically transplanted, placebo-treated control group: Syngeneic bone marrow and splenocyte transplantation (BALB/c (H2^d)→BALB/c (H2^d)). Application of methyl cellulose 0.5% from day 21 to day 56 post transplantation. • Vehicle-treated fibrosis group: Allogeneic bone marrow and splenocyte transplantation (B10.D2 (H2^d)→BALB/c (H2^d)). Application of methyl cellulose 0.5% from day 21 to day 56 post transplantation • Control group to assess pretreatment levels of fibrosis induced by allogeneic transplantation: Allogeneic bone marrow and splenocyte transplantation (B10.D2 (H2^d)→BALB/c (H2^d)). Sacrifice at day 21, before treatment was initiated in the other groups. • Treatment group: Allogeneic bone marrow and splenocyte transplantation (B10.D2 (H2^d)→BALB/c (H2^d)). Application of a test compound of the invention from day 21 to day 56 post transplantation. • Positive control group: Allogeneic bone marrow and splenocyte transplantation (B10.D2 (H2^d)→BALB/c (H2^d)). Application of 50 mg/kg qd nintedanib from day 21 to day 56 post transplantation.
Animals were sacrificed 2 h post last dose, and samples of skin (3 mm punch biopsies), lung, spleen and blood were collected for histology and gene expression analysis.
The anti-fibrotic effects on skin were analysed by determination of dermal thickness, quantification of lesional collagen and staining for myofibroblasts.
In case of positive effects on skin fibrosis, effects on pulmonary fibrosis were analysed by Ashcroft scoring, hydroxyproline content, and quantification of the collagen covered area using Sirius red staining
Based on individual animal raw data, the means for each group were determined and percent change from disease controls was calculated. Treatment groups were compared to disease controls using a one-way analysis of variance (1-way ANOVA) with a Dunnett's post-hoc analysis for measured (parametric) data or a Kruskal-Wallis test with a Dunn's post-hoc analysis for scored (non-parametric) data.

[6] = storage 25° C./60% RH - 12 months
[7] = storage 40° C./75% RH - 6 months

Row | Compound | BV/TV (bone volume fraction) ([1]; after treatment) | Bone volume ([1]; after treatment) | Av. g/g BW (average force output/g of body weight) ([1]; mid treatment (4 weeks)) | Average force output (grip strength) ([1]; mid treatment (4 weeks)) | Av. g/g BW (average force output/g of body weight) ([1]; post treatment (9 weeks)) | Average force output (grip strength) ([1]; post treatment (9 weeks)) | Av. g/g BW (average force output/g of body weight) ([1]; pre-treatment) | Average force output (grip strength) ([1]; pre-treatment) | Stability of solid forms under different conditions [2] | Stability [2, 6] | Stability [2, 7] | proteinuria [3] | urine creatinine [3] | serum creatinine [3] | Protein/creatinine [3] | other results
1 | C[C@]12C=CC(=O)C=C1CC[C@@H]1[C@@H]2[C@@H](O)C[C@@]2(C)[C@H]1CC[C@]2(O)C(=O)CO [prednisolone, reference compound] | 29.84% | 0.70 | 3.44 g/g | 84.86 | 2.93 g/g | 78.84 | 2.83 g/g | 60.55 |  |  |  |  |  |  |  | 
2 | C[C@H]1CN(C(=O)CC[C@@]2(C3CC3)NC(=O)NC2=O)CCN1c1cc(F)cc(F)c1 [Form I, (5S)-cyclopropyl-5-[3-[(3S)-4-(3,5-difluorophenyl)-3-methyl-piperazin-1-yl]-3-oxo-propyl]imidazolidine-2,4-dione] |  |  |  |  |  |  |  |  | stable | 100% | 100% |  |  |  |  | 
3 | C[C@H]1CN(C(=O)CC[C@@]2(C3CC3)NC(=O)NC2=O)CCN1c1cc(F)cc(F)c1 [Amorphous, (5S)-cyclopropyl-5-[3-[(3S)-4-(3,5-difluorophenyl)-3-methyl-piperazin-1-yl]-3-oxo-propyl]imidazolidine-2,4-dione] |  |  |  |  |  |  |  |  | stable | 100% | 99.3% |  |  |  |  | 
4 | NCCCC[C@H](N[C@@H](CCc1ccccc1)C(=O)O)C(=O)N1CCC[C@H]1C(=O)O [lisinopril, reference compound] |  |  |  |  |  |  |  |  |  |  |  | 59.1 mg/mL and 128.8 mg/mL and 55.8 mg/mL and 197.6 mg/mL and 71.7 mg/mL and 264.6 mg/mL and 284 mg/mL and 82.1 mg/mL and 80 mg/mL and 79 mg/mL | 0.467 mg/mL and 0.378 mg/mL and 0.32 mg/mL and 0.36 mg/mL and 0.3 mg/mL and 0.34 mg/mL and 0.41 mg/mL and 0.38 mg/mL and 0.22 mg/mL and 0.42 mg/mL | 0.39 mg/dL and 0.41 mg/dL and 0.34 mg/dL and 0.35 mg/dL and 0.25 mg/dL and 0.57 mg/dL (2×) and 0.46 mg/dL and 0.55 mg/dL and 0.54 mg/dL | 127 and 341 and 174 and 552 and 238 and 774 and 700 and 216 and 364 and 188 | 
5 | C[C@H]1CN(C(=O)CC[C@@]2(C3CC3)NC(=O)NC2=O)CCN1c1cc(F)cc(F)c1 [Form II, (5S)-cyclopropyl-5-[3-[(3S)-4-(3,5-difluorophenyl)-3-methyl-piperazin-1-yl]-3-oxo-propyl]imidazolidine-2,4-dione] |  |  |  |  |  |  |  |  | stable | 99.3% | 98.7% |  |  |  |  | increase in plasma peak exposure (Cmax) compared to polymorphic form I ([4]; 30% load tablet): 34%; increase in plasma peak exposure (Cmax) compared to polymorphic form I ([4]; 50% load tablet): 40%
6 | C[C@H]1CN(C(=O)CC[C@@]2(C3CC3)NC(=O)NC2=O)CCN1c1cc(F)cc(F)c1 [Cpd 1, (5S)-cyclopropyl-5-[3-[(3S)-4-(3,5-difluorophenyl)-3-methyl-piperazin-1-yl]-3-oxo-propyl]imidazolidine-2,4-dione] | 36.09% | 0.80 | 3.72 g/g | 91.88 | 3.86 g/g | 88.24 | 2.86 g/g | 61.13 |  |  |  | 75.2 mg/mL and 54.7 mg/mL and 187 mg/mL and 79.4 mg/mL and 145 mg/mL and 72.4 mg/mL and 143.5 mg/mL and 229.6 mg/mL and 163 mg/mL and 44.4 mg/mL | 0.33 mg/mL and 0.34 mg/mL and 0.38 mg/mL and 0.25 mg/mL (2×) and 0.29 mg/mL and 0.26 mg/mL and 0.297 mg/mL and 0.384 mg/mL and 0.28 mg/mL | 0.43 mg/dL and 0.4 mg/dL and 0.47 mg/dL and 0.44 mg/dL and 0.41 mg/dL and 0.46 mg/dL and 0.39 mg/dL and 0.38 mg/dL and 0.3 mg/dL and 0.37 mg/dL | 229 and 160 and 497 and 321 and 581 and 250 and 550 and 774 and 425 and 159 | reduction of Hydroxyproline content in skin [5]: −8.3%; decrease of Ashcroft score compared to the vehicle group ([5]; lung): −1,3 fold; decrease of collagen-covered lung area compared to the vehicle group ([5]; lung): −1,2 fold; reduction of myofibroblast count ([5]; skin): −35%; Tissue volume ([1]; after treatment): 2.21
